Reference: patent publication US12275733B2, “Substituted pyrido[3,4-b]indoles for the treatment of cartilage disorders” (Sanofi, priority 2016, dated 2025)

Tested on: ATDC5 cells
Experiment: Chondrogenesis activity assay in ATDC5 cells (collagen type II induction, immunofluorescence)
Format: cell-based, mouse
Conditions: Mus musculus; for EC50: collagen type II induction in ATDC5 cells, concentration reaching 50% of maximum induction; for Emax: maximum percent induction of collagen type II relative to internal reference compound at 10 μM, ATDC5 cells
Outline: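 Collagen type II was stained in fixed, permeabilized cells with an Alexa Fluor 488 secondary and measured by high-content fluorescence imaging. ATDC5 cells had 4 days at 37 °C in insulin-supplemented differentiation medium with compound, typically 40 nM–10 μM, 0.1% DMSO. DMSO wells and a 10 μM internal reference compound were used for normalization.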

| SMILES | EC50 | Emax |
| --- | --- | --- |
| CCc1nccc2c1[nH]c1c(-c3ccc(Cl)nc3Cl)cc(Cl)cc12 [Example 105, 6-Chloro-8-(2,6-dichloro-pyridin-3-yl)-1-ethyl-9H-pyrido[3,4-b]indole] | 1000 nM | 50 to 80% |
| CC(C)c1nccc2c1[nH]c1c(-c3ccc(Cl)nc3Cl)cc(Cl)cc12 [Example 106, 6-Chloro-8-(2,6-dichloro-pyridin-3-yl)-1-isopropyl-9H-pyrido[3,4-b]indole] | > 10000 nM | 20 to 50% |
| Cc1cc(-c2ccc(Cl)nc2Cl)c2[nH]c3c(C)nccc3c2c1 [Example 108, 8-(2,6-Dichloro-pyridin-3-yl)-1,6-dimethyl-9H-pyrido[3,4-b]indole] | 1400 nM | > 80% |
| Cc1nccc2c1[nH]c1c(-c3ccc(N4CCOC4=O)nc3)cc(Cl)cc12 [Example 110, 3-[5-(6-Chloro-1-methyl-9H-pyrido[3,4-b]indol-8-yl)-pyridin-2-yl]-oxazolidin-2-one] | > 10000 nM | 20 to 50% |
| COCCn1c2cnccc2c2cc(Cl)cc(-c3ccc(Cl)nc3Cl)c21 [Example 111, 6-Chloro-8-(2,6-dichloro-pyridin-3-yl)-9-(2-methoxy-ethyl)-9H-pyrido[3,4-b]indole] | 1800 nM | 50 to 80% |
| Cn1c(-c2cc(Cl)cc3c4ccncc4n(CC(F)(F)F)c23)cnc1Cl [Example 114, 6-Chloro-8-(2-chloro-3-methyl-3H-imidazol-4-yl)-9-(2,2,2-trifluoro-ethyl)-9H-pyrido[3,4-b]indole] | 5700 nM | 20 to 50% |
| CSc1ccc(-c2cc(Cl)cc3c2[nH]c2c(C)nccc23)cn1 [Example 120, 6-Chloro-1-methyl-8-(6-methylsulfanyl-pyridin-3-yl)-9H-pyrido[3,4-b]indole] | 1400 nM | 50 to 80% |
| CCn1c2cnccc2c2cc(Cl)cc(-c3ccco3)c21 [Example 124, 6-Chloro-9-ethyl-8-furan-2-yl-9H-pyrido[3,4-b]indole] | 2600 nM | < 20% |
| CCn1c2c(-c3ccncc3)cc(Cl)cc2c2ccnc(C)c21 [Example 125, 6-Chloro-9-ethyl-1-methyl-8-pyridin-4-yl-9H-pyrido[3,4-b]indole] | 1000 nM | > 80% |
| FC(F)(F)Cn1c2cnccc2c2cc(Cl)cc(-c3cncnc3)c21 [Example 126, 6-Chloro-8-pyrimidin-5-yl-9-(2,2,2-trifluoro-ethyl)-9H-pyrido[3,4-b]indole] | > 10000 nM | 20 to 50% |
| FC(F)(F)Cn1c2cnccc2c2cc(Cl)cc(-c3ccccc3)c21 [Example 128, 6-Chloro-8-phenyl-9-(2,2,2-trifluoro-ethyl)-9H-pyrido[3,4-b]indole] | 3900 nM | < 20% |
| Nc1ncc(-c2cc(Cl)cc3c4ccncc4n(CC(F)(F)F)c23)cn1 [Example 132, 5-[6-Chloro-9-(2,2,2-trifluoro-ethyl)-9H-pyrido[3,4-b]indol-8-yl]-pyrimidin-2-ylamine] | 4500 nM | 20 to 50% |
| CCn1c2cnccc2c2cc(Cl)cc(-c3cncnc3)c21 [Example 133, 6-Chloro-9-ethyl-8-pyrimidin-5-yl-9H-pyrido[3,4-b]indole] | > 10000 nM | 20 to 50% |
| FC(F)(F)Cn1c2cnccc2c2cc(Cl)cc(-c3ccc(Cl)s3)c21 [Example 134, 6-Chloro-8-(5-chloro-thiophen-2-yl)-9-(2,2,2-trifluoro-ethyl)-9H-pyrido[3,4-b]indole] | > 10000 nM | < 20% |
| FC(F)(F)Cn1c2cnccc2c2cc(Cl)cc(-c3cc(-c4ccccc4)no3)c21 [Example 136, 6-Chloro-8-(3-phenyl-isoxazol-5-yl)-9-(2,2,2-trifluoro-ethyl)-9H-pyrido[3,4-b]indole] | 4100 nM | 50 to 80% |
| CC(C)Cn1cc(-c2cc(Cl)cc3c4ccncc4n(CC(F)(F)F)c23)cn1 [Example 137, 6-Chloro-8-(1-isobutyl-1H-pyrazol-4-yl)-9-(2,2,2-trifluoro-ethyl)-9H-pyrido[3,4-b]indole] | 1400 nM | 20 to 50% |
| Cc1nn(C)c(C)c1-c1cc(Cl)cc2c3ccncc3n(CC(F)(F)F)c12 [Example 138, 6-Chloro-9-(2,2,2-trifluoro-ethyl)-8-(1,3,5-trimethyl-1H-pyrazol-4-yl)-9H-pyrido[3,4-b]indole] | > 10000 nM | < 20% |
| FC(F)(F)Cn1c2cnccc2c2cc(Cl)cc(-c3cnn4ccccc34)c21 [Example 139, 6-Chloro-8-pyrazolo[1,5-a]pyridin-3-yl-9-(2,2,2-trifluoro-ethyl)-9H-pyrido[3,4-b]indole] | > 10000 nM | < 20% |
| Clc1cc(-c2cncnc2)c2[nH]c3cnccc3c2c1 [Example 141, 6-Chloro-8-pyrimidin-5-yl-9H-pyrido[3,4-b]indole] | > 10000 nM | < 20% |

The next molecules have a lower EC50 than those just listed; values first:

| EC50 | SMILES | Emax |
| --- | --- | --- |
| 560 nM | Cc1nccc2c1[nH]c1c(-c3ccc(-n4ccccc4=O)nc3)cc(Cl)cc12 [Example 107, 5′-(6-Chloro-1-methyl-9H-pyrido[3,4-b]indol-8-yl)-[1,2′]bipyridinyl-2-one] | 20 to 50% |
| 720 nM | Cc1nccc2c1[nH]c1c(-c3ccc(N4CCNC(=O)C4)nc3)cc(Cl)cc12 [Example 109, 4-[5-(6-Chloro-1-methyl-9H-pyrido[3,4-b]indol-8-yl)-pyridin-2-yl]-piperazin-2-one] | 50 to 80% |
| 490 nM | FC(F)(F)Cn1c2cnccc2c2cc(Cl)cc(-c3cnn(Cc4ccncc4)c3)c21 [Example 112, 6-Chloro-8-(1-pyridin-4-ylmethyl-1H-pyrazol-4-yl)-9-(2,2,2-trifluoro-ethyl)-9H-pyrido[3,4-b]indole] | > 80% |
| 780 nM | COc1ccc(-c2cc(Cl)cc3c2[nH]c2c(C)nccc23)c(N)n1 [Example 113, 3-(6-Chloro-1-methyl-9H-pyrido[3,4-b]indol-8-yl)-6-methoxy-pyridin-2-ylamine] | > 80% |
| 490 nM | Cc1nccc2c1[nH]c1c(-c3cnn(Cc4cccnc4)c3)cc(Cl)cc12 [Example 115, 6-Chloro-1-methyl-8-(1-pyridin-3-ylmethyl-1H-pyrazol-4-yl)-9H-pyrido[3,4-b]indole] | > 80% |
| 590 nM | CCn1c2c(-c3cnn(Cc4ccc(C)nc4C)c3)cc(Cl)cc2c2ccnc(C)c21 [Example 121, 6-Chloro-8-[1-(2,6-dimethyl-pyridin-3-ylmethyl)-1H-pyrazol-4-yl]-9-ethyl-1-methyl-9H-pyrido[3,4-b]indole] | > 80% |
| 260 nM | CCn1c2cnccc2c2cc(Cl)cc(-c3ccncc3)c21 [Example 123, 6-Chloro-9-ethyl-8-pyridin-4-yl-9H-pyrido[3,4-b]indole] | 20 to 50% |
| 380 nM | FC(F)(F)Cn1c2cnccc2c2cc(Cl)cc(-c3ccncc3)c21 [Example 127, 6-Chloro-8-pyridin-4-yl-9-(2,2,2-trifluoro-ethyl)-9H-pyrido[3,4-b]indole] | 50 to 80% |
| 860 nM | FC(F)(F)Cn1c2cnccc2c2cc(Cl)cc(-c3ccc(Cl)cc3)c21 [Example 129, 6-Chloro-8-(4-chloro-phenyl)-9-(2,2,2-trifluoro-ethyl)-9H-pyrido[3,4-b]indole] | > 80% |
| 380 nM | Cc1nccc2c1[nH]c1c(-c3ccncc3)cc(Cl)cc12 [Example 130, 6-Chloro-1-methyl-8-pyridin-4-yl-9H-pyrido[3,4-b]indole] | > 80% |
| 780 nM | CCn1c2cnccc2c2cc(Cl)cc(-c3ccc(Cl)cc3)c21 [Example 131, 6-Chloro-8-(4-chloro-phenyl)-9-ethyl-9H-pyrido[3,4-b]indole] | > 80% |
| 330 nM | Cn1cc(-c2cc(Cl)cc3c4ccncc4n(CC(F)(F)F)c23)cn1 [Example 135, 6-Chloro-8-(1-methyl-1H-pyrazol-4-yl)-9-(2,2,2-trifluoro-ethyl)-9H-pyrido[3,4-b]indole] | 50 to 80% |
| 910 nM | Cc1cc(-c2cc(Cl)cc3c4ccncc4n(CC(F)(F)F)c23)n(C)n1 [Example 140, 6-Chloro-8-(2,5-dimethyl-2H-pyrazol-3-yl)-9-(2,2,2-trifluoro-ethyl)-9H-pyrido[3,4-b]indole] | 20 to 50% |
| 520 nM | CCn1c2cnccc2c2cc(Cl)cc(-c3ccc(OC)cc3)c21 [Example 142, 6-Chloro-9-ethyl-8-(4-methoxy-phenyl)-9H-pyrido[3,4-b]indole] | > 80% |
| 970 nM | CCn1c2cnccc2c2cc(Cl)cc(-c3ccc(C)cc3)c21 [Example 143, 6-Chloro-9-ethyl-8-p-tolyl-9H-pyrido[3,4-b]indole] | 20 to 50% |
| 580 nM | FC(F)(F)Cn1c2cnccc2c2cc(Cl)cc(-c3cn[nH]c3)c21 [Example 144, 6-Chloro-8-(1H-pyrazol-4-yl)-9-(2,2,2-trifluoro-ethyl)-9H-pyrido[3,4-b]indole] | < 20% |
| 480 nM | CCn1c2cnccc2c2cc(Cl)cc(-c3ccccc3Cl)c21 [Example 145, 6-Chloro-8-(2-chloro-phenyl)-9-ethyl-9H-pyrido[3,4-b]indole] | < 20% |
| 41 nM | CCn1c2cnccc2c2cc(Cl)cc(-c3cccc(OC)c3)c21 [Example 146, 6-Chloro-9-ethyl-8-(3-methoxy-phenyl)-9H-pyrido[3,4-b]indole] | < 20% |
| 840 nM | CCn1c2c(-c3ccc(OC)cc3)cc(Cl)cc2c2ccnc(C)c21 [Example 147, 6-Chloro-9-ethyl-8-(4-methoxy-phenyl)-1-methyl-9H-pyrido[3,4-b]indole] | > 80% |
| 46 nM | CCn1c2c(-c3ccc(Cl)cc3)cc(Cl)cc2c2ccnc(C)c21 [Example 148, 6-Chloro-8-(4-chloro-phenyl)-9-ethyl-1-methyl-9H-pyrido[3,4-b]indole] | > 80% |
